# Test system: MCF-7 human breast cancer cells
# Assay: XTT cytotoxicity assay
# Type: cell-based
# Settings: MCF7, MCF-7 cells, 72 hours
# Experimental: The XTT assay is a non-radioactive alternative for the [^51Cr] release cytotoxicity assay. XTT is a tetrazolium salt that is reduced to a formazan dye only by metabolically active, viable cells. The reduction of XTT is measured spectrophotometrically as OD490-OD650.
# To measure the cytotoxicity of specific compounds against cancer cells, 9×10^3 MCF-7 human breast cancer cells, obtained from the American Type Culture Collection are plated per well in 96 well plates in DMEM medium with 10% fetal bovine serum, msulin, penicillin, and streptomycin. Following overnight culture at 37° C. and 5% CO2, the compounds to be tested, dissolved in DMSO, are added to the wells in 1 μl volume at the following concentrations: 80, 40, 20, 10, 5, 2.5, 1.25, and 0.625 μg/ml in triplicate. Additional concentrations are tested if required. 1 μl of DMSO is added to triplicate wells are the vehicle control. C75 is run at 40, 20, […], and 5 μg/ml in triplicate as positive controls.
# After 72 hours of incubation, cells are incubated for 4 hours with the XTT reagent as per manufacturer's instructions (Cell Proliferation Kit II (XTT) Roche). Plates are read at OD490 and OD650 on a Molecular Devices SpectraMax Plus Spectrophotometer. Three wells containing the All reagent without cells serve as the plate blank. XTT data are reported as OD490-OD650. Averages and standard error of the mean are computed using SOFTmax Pro software ([…]).
# The IC50 for the compounds is defined as the concentration of drug leading to a 50% reduction in OD490-OD650 compared to controls. The OD490-OD650 are computed by the SOFTmax PRO software Molecular Devices) for each compound concentration. IC50 is calculated by linear regression, plotting the FAS activity as percent of control versus drug concentrations. Linear regression, best-fit line, r^2, and 95% confidence intervals are determined using Prism Version 3.0 (Graph Pad Software).
row,SMILES,IC50 [µg/mL]
1,C=CCNC(=O)[C@H]1[C@H](CCCCCCCC)OC(=O)[C@@H]1C (racemic),20.8 ± 7.1
2,C=CCNC(=O)[C@@H]1C(=C)C(=O)O[C@H]1CCCCCC (racemic),1.6 ± 0.1
3,C=CCNC(=O)[C@@H]1C(=C)C(=O)O[C@H]1CCCC (racemic),2.4 ± 0.2
4,C=C1C(=O)O[C@@H](CCCCCCCC)[C@@H]1C(=O)NCCO (racemic),4.1 ± 2.2
5,C=C1C(=O)O[C@@H](CCCCCCCC)[C@@H]1C(=O)NCC(=O)OC (racemic),2 ± 0.5
6,C=C1C(=O)O[C@@H](CCCCCCCC)[C@@H]1C(=O)NCC(=O)O (racemic),> 80

# Test system: Enterococcus faecalis (ATCC #29212)
# Assay: Broth microdilution MIC
# Type: cell-based
# Settings: Enterococcus faecalis, ATCC29212; Mueller Hinton Broth, 24 hours; read-out: EF/MH (MIC)
# Experimental: (§1) A broth microdilution assay is used to assess the antimicrobial activity of the compounds. Compounds are tested at twofold serial dilutions, and the concentration that inhibits visible growth (OD600 at 10% of control) is defined as the MIC. Microorganisms tested include Staphylococcus aureus (ATCC #29213), Enterococcus faecalis (ATCC #29212), Pseudomonas aeruginosa (ATCC #27853), and Escherichia coli (ATCC #25922). The assay is performed in two growth media, Mueller Hinton Broth and Trypticase Soy Broth.
# (§2) A blood (Tsoy/5% sheep blood) agar plate is inoculated from frozen stocks maintained in T soy broth containing 10% glycerol and incubated overnight at 37° C. Colonies are suspended in sterile broth so that the turbidity matches the turbidity of a 0.5 McFarland standard. The inoculum is diluted 1:10 in sterile broth (Mueller Hinton or Trypticase soy) and 195 ul is dispensed per well of a 96-well plate. The compounds to be tested, dissolved in DMSO, are added to the wells in 5 ul volume at the following concentrations: 25, 12.5, 6.25, 3.125, 1.56 and 0.78 ug/ml in duplicate. Additional concentrations are tested if required. 5 ul of DMSO added to duplicate wells are the vehicle control. Serial dilutions of positive control compounds, vancomycin (E. faecalis and S. aureus) and tobramycin (E. coli and P. aeruginosa), are included in each rum
# (§3) After 24 hours of incubation at 37° C., plates are read at OD600 on a Molecular Devices SpectraMax Plus Spectrophotometer. Average OD600 values are computed using SOFTmax Pro Software (Molecular Devices) and MIC values are determined by linear regression analysis using Prism version 3.02 (Graph Pad Software, San Diego). The MIC is defined as the concentration of compound required to produce an OD600 reading equivalent to 10% of the vehicle control reading.
row,SMILES,MIC [µg/mL]
1,C=CCNC(=O)[C@H]1[C@H](CCCCCCCC)OC(=O)[C@@H]1C (racemic),84
2,C=CCNC(=O)[C@@H]1C(=C)C(=O)O[C@H]1CCCCCC (racemic),103
3,C=CCNC(=O)[C@@H]1C(=C)C(=O)O[C@H]1CCCC (racemic),190
4,C=C1C(=O)O[C@@H](CCCCCCCC)[C@@H]1C(=O)NCC(=O)OC (racemic),80
5,C=C1C(=O)O[C@@H](CCCCCCCC)[C@@H]1C(=O)NCC(=O)O (racemic),219

# Same assay, conditions: Enterococcus faecalis, ATCC29212; Trypticase Soy Broth, 24 hours; read-out: EF/Tsoy (MIC)
row,SMILES,MIC [µg/mL]
1,C=CCNC(=O)[C@@H]1C(=C)C(=O)O[C@H]1CCCCCC (racemic),38
2,C=CCNC(=O)[C@@H]1C(=C)C(=O)O[C@H]1CCCC (racemic),67
3,C=C1C(=O)O[C@@H](CCCCCCCC)[C@@H]1C(=O)NCCO (racemic),77
4,C=C1C(=O)O[C@@H](CCCCCCCC)[C@@H]1C(=O)NCC(=O)OC (racemic),245
5,C=C1C(=O)O[C@@H](CCCCCCCC)[C@@H]1C(=O)NCC(=O)O (racemic),215

# Same assay, conditions: Mueller Hinton Broth, 24 hours
row,EF/MH (MIC),SMILES
1,Neg,C=C1C(=O)O[C@@H](CCCCCCCC)[C@@H]1C(=O)NCCO (racemic)

# Same assay, conditions: Trypticase Soy Broth, 24 hours
row,EF/Tsoy (MIC),SMILES
1,Neg,C=CCNC(=O)[C@H]1[C@H](CCCCCCCC)OC(=O)[C@@H]1C (racemic)

# Test system: Escherichia coli (ATCC #25922)
# Assay: Broth microdilution MIC
# Type: cell-based
# Settings: Escherichia coli, ATCC25922; Trypticase Soy Broth, 24 hours; read-out: Ecoli/Tsoy (MIC)
# Experimental: as §1, §2, §3
row,SMILES,MIC [µg/mL]
1,C=CCNC(=O)[C@H]1[C@H](CCCCCCCC)OC(=O)[C@@H]1C (racemic),155
2,C=C1C(=O)O[C@@H](CCCCCCCC)[C@@H]1C(=O)NCC(=O)OC (racemic),275
3,C=C1C(=O)O[C@@H](CCCCCCCC)[C@@H]1C(=O)NCC(=O)O (racemic),235

# Same assay, conditions: Mueller Hinton Broth, 24 hours
row,SMILES,Ecoli/MH (MIC)
1,C=CCNC(=O)[C@H]1[C@H](CCCCCCCC)OC(=O)[C@@H]1C (racemic),Neg
2,C=CCNC(=O)[C@@H]1C(=C)C(=O)O[C@H]1CCCCCC (racemic),Neg
3,C=CCNC(=O)[C@@H]1C(=C)C(=O)O[C@H]1CCCC (racemic),Neg
4,C=C1C(=O)O[C@@H](CCCCCCCC)[C@@H]1C(=O)NCCO (racemic),Neg
5,C=C1C(=O)O[C@@H](CCCCCCCC)[C@@H]1C(=O)NCC(=O)OC (racemic),Neg
6,C=C1C(=O)O[C@@H](CCCCCCCC)[C@@H]1C(=O)NCC(=O)O (racemic),Neg

# Same assay, conditions: Trypticase Soy Broth, 24 hours
row,SMILES,Ecoli/Tsoy (MIC)
1,C=CCNC(=O)[C@@H]1C(=C)C(=O)O[C@H]1CCCCCC (racemic),Neg
2,C=CCNC(=O)[C@@H]1C(=C)C(=O)O[C@H]1CCCC (racemic),Neg
3,C=C1C(=O)O[C@@H](CCCCCCCC)[C@@H]1C(=O)NCCO (racemic),Neg

# Test system: Pseudomonas aeruginosa (ATCC #27853)
# Assay: Broth microdilution MIC
# Type: cell-based
# Settings: Mueller Hinton Broth, 24 hours
# Experimental: as §1, §2, §3
row,SMILES,PSAE/MH (MIC)
1,C=CCNC(=O)[C@@H]1C(=C)C(=O)O[C@H]1CCCCCC (racemic),Neg
2,C=CCNC(=O)[C@@H]1C(=C)C(=O)O[C@H]1CCCC (racemic),Neg
3,C=C1C(=O)O[C@@H](CCCCCCCC)[C@@H]1C(=O)NCCO (racemic),Neg
4,C=C1C(=O)O[C@@H](CCCCCCCC)[C@@H]1C(=O)NCC(=O)OC (racemic),Neg
5,C=C1C(=O)O[C@@H](CCCCCCCC)[C@@H]1C(=O)NCC(=O)O (racemic),Neg

# Same assay, conditions: Pseudomonas aeruginosa, ATCC27853; Mueller Hinton Broth, 24 hours; read-out: PSAE/MH (MIC)
row,MIC [µg/mL],SMILES
1,218,C=CCNC(=O)[C@H]1[C@H](CCCCCCCC)OC(=O)[C@@H]1C (racemic)

# Same assay, conditions: Pseudomonas aeruginosa, ATCC27853; Trypticase Soy Broth, 24 hours; read-out: PSAE/Tsoy (MIC)
row,MIC [µg/mL],SMILES
1,160,C=CCNC(=O)[C@H]1[C@H](CCCCCCCC)OC(=O)[C@@H]1C (racemic)

# Same assay, conditions: Trypticase Soy Broth, 24 hours
row,SMILES,PSAE/Tsoy (MIC)
1,C=CCNC(=O)[C@@H]1C(=C)C(=O)O[C@H]1CCCCCC (racemic),Neg
2,C=CCNC(=O)[C@@H]1C(=C)C(=O)O[C@H]1CCCC (racemic),Neg
3,C=C1C(=O)O[C@@H](CCCCCCCC)[C@@H]1C(=O)NCCO (racemic),Neg
4,C=C1C(=O)O[C@@H](CCCCCCCC)[C@@H]1C(=O)NCC(=O)OC (racemic),Neg
5,C=C1C(=O)O[C@@H](CCCCCCCC)[C@@H]1C(=O)NCC(=O)O (racemic),Neg

# Test system: Staphylococcus aureus (ATCC #29213)
# Assay: Broth microdilution MIC
# Type: cell-based
# Settings: Staphylococcus aureus, ATCC29213; Mueller Hinton Broth, 24 hours; read-out: SA/MH (MIC)
# Experimental: as §1, §2, §3
row,SMILES,MIC [µg/mL]
1,C=CCNC(=O)[C@H]1[C@H](CCCCCCCC)OC(=O)[C@@H]1C (racemic),80
2,C=CCNC(=O)[C@@H]1C(=C)C(=O)O[C@H]1CCCCCC (racemic),49
3,C=CCNC(=O)[C@@H]1C(=C)C(=O)O[C@H]1CCCC (racemic),65
4,C=C1C(=O)O[C@@H](CCCCCCCC)[C@@H]1C(=O)NCCO (racemic),44
5,C=C1C(=O)O[C@@H](CCCCCCCC)[C@@H]1C(=O)NCC(=O)OC (racemic),4.3
6,C=C1C(=O)O[C@@H](CCCCCCCC)[C@@H]1C(=O)NCC(=O)O (racemic),72

# Same assay, conditions: Staphylococcus aureus, ATCC29213; Trypticase Soy Broth, 24 hours; read-out: SA/Tsoy (MIC)
row,SMILES,MIC [µg/mL]
1,C=CCNC(=O)[C@H]1[C@H](CCCCCCCC)OC(=O)[C@@H]1C (racemic),193
2,C=CCNC(=O)[C@@H]1C(=C)C(=O)O[C@H]1CCCCCC (racemic),47
3,C=CCNC(=O)[C@@H]1C(=C)C(=O)O[C@H]1CCCC (racemic),96
4,C=C1C(=O)O[C@@H](CCCCCCCC)[C@@H]1C(=O)NCCO (racemic),48
5,C=C1C(=O)O[C@@H](CCCCCCCC)[C@@H]1C(=O)NCC(=O)OC (racemic),26
6,C=C1C(=O)O[C@@H](CCCCCCCC)[C@@H]1C(=O)NCC(=O)O (racemic),52

# Test system: MCF-7 human breast cancer cells
# Assay: Crystal violet cell growth assay
# Type: cell-based
# Settings: MCF7, MCF-7 cells, 72 hours, read-out: Cr. Violet (IC50)
# Experimental: Crystal Violet Cell Growth Assay
# The crystal violet assay measures cell growth but not cytotoxicity. This assay employs crystal violet staining of fixed cells in 96-well plates with subsequent solubilization and measurement of OD490 on a spectrophotometer. The OD490 corresponds to cell growth per unit time measured. Cells are treated with the compounds of interest or vehicle controls and IC50 for each compound is computed.
# To measure the cytotoxicity of specific compounds against cancer cells, 5×10^4 MCF-7 human breast cancer cells, obtained from the American Type Culture Collection are plated per well in 24 well plates in DMEM medium with 10% fetal bovine serum, penicillin, and streptomycin. Following overnight culture at 37° C. and 5% CO2, the compounds to be tested, dissolved in DMSO, are added to the wells in 1 μl volume at the following concentrations: 50, 40, 30, 20, and 10 μg/ml in triplicate. Additional concentrations are tested if required. 1 μl of DMSO is added to triplicate wells as the vehicle control. C75 is run at 10, and 5 μg/ml in triplicate as positive controls.
# After 72 hours of incubation, cells are stained with 0.5 ml of Crystal Violet stain (0.5% in 25% methanol) in each well. After 10 minutes, wells are rinsed, air dried, and then solubilized with 0.5 ml 10% sodium dodecylsulfate with shaking for 2 hours. Following transfer of 100 μl from each well to a 96-well plate, plates are read at OD490 on a Molecular Devices SpectraMax Plus Spectrophotometer Average OD490 values are computed using SOFTmax Pro Software (Molecular Devices) and IC50 values are determined by linear regression analysis using Prism version 3.02 (Graph Pad Software, San Diego).
row,SMILES,IC50 [µg/mL]
1,C=CCNC(=O)[C@H]1[C@H](CCCCCCCC)OC(=O)[C@@H]1C (racemic),30
2,C=CCNC(=O)[C@@H]1C(=C)C(=O)O[C@H]1CCCCCC (racemic),0.85 ± 0.08
3,C=CCNC(=O)[C@@H]1C(=C)C(=O)O[C@H]1CCCC (racemic),2.2 ± 0.3
4,C=C1C(=O)O[C@@H](CCCCCCCC)[C@@H]1C(=O)NCCO (racemic),2.2 ± 1
5,C=C1C(=O)O[C@@H](CCCCCCCC)[C@@H]1C(=O)NCC(=O)OC (racemic),1.3 ± 0.09
6,C=C1C(=O)O[C@@H](CCCCCCCC)[C@@H]1C(=O)NCC(=O)O (racemic),> 50

# Reference: patent US20060241177A1, “Novel compounds, pharmaceutical compositions containing same, and methods of use for same” (priority 2002, published 2006)
